In ChEMBL document CHEMBL4706707, “Discovery of novel HBV capsid assembly modulators by structure-based virtual screening and bioassays” (Bioorg Med Chem, 2021):

Experiments:
[1] = Cytotoxicity against human HepG2.2.15 cells assessed as reduction in cell viability compound addition at every 3 days for 7 days by MTT assay; assay type: cell-based, HepG2 2.2.15; details: time 7 day
Hepatitis B virus [2] = assay: Antiviral activity against HBV infected in human HepG2.2.15 cells assessed as inhibition of viral growth measured by reduction in DNA level compound addition at every 3 days for 7 days by qPCR analysis; assay type: functional, organism-based
Hepatitis B virus [3] = assay: Antiviral activity against HBV infected in human HepG2.2.15 cells assessed as inhibition of viral growth measured by reduction in DNA level at 20 uM compound addition at every 3 days for 7 days by qPCR analysis relative to control; assay type: functional; details: HepG2.2.15, 168 h, time 7 day
HEK293T = assay: Inhibition of HBV VFP-fused HBV-VN (N1 to 154 residue)/ VFP-fused HBV-VC (C155 to 239 residue) capsid protein assembly in 293T cells assessed as mean flouroscent intensity sat 50 uM by BIFC assay; assay type: cell-based; details: Hepatitis B virus

Row | Structure (SMILES) | CC50 at 168 h [1] [µM] | EC50 (Hepatitis B virus [2]) [µM] | inhibition at 20 µM (Hepatitis B virus [3]) [%] | Flu intensity (HEK293T)
1 | Cc1ccc(-c2cc(C(=O)N3CCN(C/C=C/c4ccccc4)CC3)c3ccccc3n2)cc1C | > 20 | 5.6 | 72.5 | –
2 | Cc1ccc([C@H](C)NC(=O)c2cc(-c3cccc(C)c3)nc3ccccc23)cc1 | > 20 | > 20 | – | –
3 | Cc1ccc(CN2C(=N)C(C(=O)NCc3cccnc3)=CC3C(=O)N4C=CC=CC4=NC32)cc1 (centres undefined) | – | – | 54.5 | –
4 | Cc1ccc(-c2cc(C(=O)N3CCC(Cc4ccccc4)CC3)c3ccccc3n2)cc1 | > 20 | 11.7 | – | –
5 | O=C(Nc1ccccc1F)c1ccccc1C(=O)Nc1ccccc1F | – | – | 38.5 | –
6 | CCOC(=O)C1=C(CN2CCOCC2)NC(c2nccs2)=N[C@H]1c1ccc(F)cc1Br | – | – | – | 0.41
7 | O=C(c1cc(-c2cccc(Br)c2)nc2ccccc12)N1CCC(Cc2ccccc2)CC1 | > 20 | > 20 | – | –
8 | CC(C)Cc1ccc(-c2cc(C(=O)N3CCC(Cc4ccccc4)CC3)c3ccccc3n2)cc1 | > 20 | > 20 | – | –
9 | COc1ccccc1N1CCN(C(=O)c2cc(-c3ccc(C)c(C)c3)nc3ccccc23)CC1 | > 20 | 15.3 | – | –
10 | O=C(CCCCC(=O)Nc1ccccc1C(=O)Nc1cccc(Cl)c1)Nc1ccccc1C(=O)Nc1cccc(Cl)c1 | – | – | 30.1 | –
11 | O=C(Nc1c(C(=O)N2CCCCCC2)cnn1-c1ccccc1)c1cccc(F)c1 | – | – | 13.5 | –
12 | O=C(c1cc(-c2ccsc2Cl)nc2ccccc12)N1CCC(Cc2ccccc2)CC1 | > 20 | 6.7 | – | –
13 | O=C(Nc1cc(Cl)ccc1O)c1cccc(N2C(=O)c3ccccc3C2=O)c1 | – | – | 8.12 | –
14 | O=C(OCc1ccc(Cl)cc1)c1cc(-c2ccccc2)nc2ccccc12 | > 20 | > 20 | – | –
15 | CCOc1cccc(-c2cc(C(=O)NCc3nnc(C(C)(C)CC)s3)c3ccccc3n2)c1 | > 20 | > 20 | – | –
16 | COc1ccc(-c2cc(C(=O)OCc3ccccc3)c3ccccc3n2)cc1 | > 20 | > 20 | – | –
17 | CS(=O)(=O)N1CCCc2cc(C(=O)Nc3ccccc3C(=O)NCc3ccccc3)ccc21 | – | – | 36.6 | –

Row | Structure (SMILES) | CC50 at 168 h [1] [µM] | EC50 (Hepatitis B virus [2]) [µM] | inhibition at 20 µM (Hepatitis B virus [3]) [%] | Flu intensity (HEK293T)
18 | O=C(NCc1ccc(Cl)cc1)c1cc(-c2ccccc2)nc2ccccc12 | > 20 | 15.7 | – | –
19 | COc1cc(OC)c(C(=O)Nc2cccc(S(=O)(=O)N3CCCC3)c2)cc1OC | – | – | 2.32 | –
20 | O=C(c1cc(-c2ccsc2Cl)nc2ccccc12)N1CCN(C/C=C/c2ccccc2)CC1 | > 20 | 11.9 | – | –
21 | O=C(c1cc(-c2ccsc2Cl)nc2ccccc12)N1CCN(Cc2ccccc2)CC1 | > 20 | 8.3 | – | –
22 | Cc1cccc(-c2cc(C(=O)NCc3ccccn3)c3ccccc3n2)c1 | > 20 | > 20 | – | –
23 | Cc1cccc(-c2cc(C(=O)N3CCC(Cc4ccccc4)CC3)c3ccccc3n2)c1 | > 20 | 1.8 | – | 0.25
24 | Cc1ccc(C(=O)COC(=O)c2ccccc2NC(=O)Cc2ccccc2)cc1 | – | – | 45.9 | –
25 | Cc1ccc(-c2n[nH]c(SCC(=O)N3c4ccccc4Sc4ccccc43)n2)cc1 | – | – | 48.7 | –
26 | O=C(CN1C(=O)c2ccccc2C1=O)Nc1ccccc1C(=O)N(Cc1ccccc1)Cc1ccccc1 | – | – | 23.3 | –
27 | CCOc1cccc(-c2cc(C(=O)N3CCC(Cc4ccccc4)CC3)c3ccccc3n2)c1 | > 20 | 9.8 | – | –
28 | O=C(Nc1ccccc1N1CCN(C(=O)c2ccccc2)CC1)C(c1ccccc1)c1ccccc1 | – | – | 12.2 | –
29 | Cc1ccc(-c2cc(C(=O)N3CCN(Cc4ccccc4)CC3)c3ccccc3n2)cc1 | > 20 | 14.5 | – | –
30 | CCCc1nc2ccccc2n1Cc1nc2ccccc2n1CCO | – | – | 8.1 | –
31 | CCN(C(=O)Cn1c([C@@H]2CC(=O)N(c3ccccc3C)C2)nc2ccccc21)c1ccccc1 | – | – | -8.36 | –
32 | Cn1c(=O)[nH]c(=O)c2c1nc(SCc1ccc(Cl)cc1)n2CCCc1ccccc1 | – | – | 64.8 | –
33 | N#CC1=C(N)N(c2nc[nH]n2)C2=C(C(=O)C[C@@H](c3ccccc3)C2)[C@H]1c1cccnc1 | – | – | 33 | –
34 | O=C(c1cc(-c2ccccc2)nc2ccccc12)N1CCC(Cc2ccccc2)CC1 | > 20 | 8.7 | – | –
